Assay results: ChEMBL document CHEMBL4507291 (2021)

What was measured:
[1] = test system: Epidermal growth factor receptor (Homo sapiens), P00533 [UNDEFINED MUTATION]
[2] = biological target: 5-hydroxytryptamine receptor 1D (Homo sapiens) (UniProt P28221); conditions: Compound concentration 10.0 uM
[3] = test system: Epidermal growth factor receptor (Homo sapiens), P00533 [L858R,T790M]
[4] = biological target: T1, Discoidin domain-containing receptor 2 (Homo sapiens) (UniProt Q16832)
T1 sequence (whole entry): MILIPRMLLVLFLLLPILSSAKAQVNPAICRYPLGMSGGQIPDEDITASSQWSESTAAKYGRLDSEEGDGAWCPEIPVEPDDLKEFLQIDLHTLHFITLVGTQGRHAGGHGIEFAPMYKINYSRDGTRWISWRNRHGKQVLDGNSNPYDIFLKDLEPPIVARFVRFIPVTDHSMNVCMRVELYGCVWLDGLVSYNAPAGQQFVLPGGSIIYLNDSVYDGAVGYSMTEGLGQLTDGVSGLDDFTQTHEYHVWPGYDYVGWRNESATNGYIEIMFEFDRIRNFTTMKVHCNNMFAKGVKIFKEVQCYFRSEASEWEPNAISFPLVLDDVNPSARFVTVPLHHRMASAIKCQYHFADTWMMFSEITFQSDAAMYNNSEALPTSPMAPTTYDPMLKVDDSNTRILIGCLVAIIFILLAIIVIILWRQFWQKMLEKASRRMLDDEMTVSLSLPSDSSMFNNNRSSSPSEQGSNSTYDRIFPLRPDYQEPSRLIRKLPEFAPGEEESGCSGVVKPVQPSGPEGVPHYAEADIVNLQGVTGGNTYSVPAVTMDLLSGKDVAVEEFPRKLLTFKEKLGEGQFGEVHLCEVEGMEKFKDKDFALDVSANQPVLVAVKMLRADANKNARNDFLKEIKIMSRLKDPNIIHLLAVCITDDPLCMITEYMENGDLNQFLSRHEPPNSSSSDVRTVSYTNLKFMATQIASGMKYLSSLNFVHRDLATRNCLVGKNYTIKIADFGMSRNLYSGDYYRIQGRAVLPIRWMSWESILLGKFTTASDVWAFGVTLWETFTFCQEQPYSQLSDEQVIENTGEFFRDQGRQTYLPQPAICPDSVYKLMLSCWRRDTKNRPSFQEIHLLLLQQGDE

[5] = biological target: Serine/threonine-protein kinase 32A (Homo sapiens) (UniProt Q8WU08)
[6] = biological target: Proto-oncogene tyrosine-protein kinase receptor Ret (Homo sapiens) (UniProt P07949)
[7] = biological target: Macrophage colony-stimulating factor 1 receptor (Homo sapiens) (UniProt P07333)
[8] = biological target: Vascular endothelial growth factor receptor 3 (Homo sapiens) (UniProt P35916)
[9] = test system: Phosphatidylinositol 4,5-bisphosphate 3-kinase catalytic subunit alpha isoform (Homo sapiens), P42336 [C420R]
[10] = biological target: Serine/threonine-protein kinase MRCK alpha (Homo sapiens) (UniProt Q5VT25)
[11] = biological target: Serine/threonine-protein kinase LATS2 (Homo sapiens) (UniProt Q9NRM7)
[12] = biological target: Serine/threonine-protein kinase PLK1 (Homo sapiens) (UniProt P53350)
[13] = biological target: Mitogen-activated protein kinase 7 (Homo sapiens) (UniProt Q13164)
[14] = biological target: T2, Tyrosine-protein kinase Tec (Homo sapiens) (UniProt P42680)
T2 sequence (whole entry): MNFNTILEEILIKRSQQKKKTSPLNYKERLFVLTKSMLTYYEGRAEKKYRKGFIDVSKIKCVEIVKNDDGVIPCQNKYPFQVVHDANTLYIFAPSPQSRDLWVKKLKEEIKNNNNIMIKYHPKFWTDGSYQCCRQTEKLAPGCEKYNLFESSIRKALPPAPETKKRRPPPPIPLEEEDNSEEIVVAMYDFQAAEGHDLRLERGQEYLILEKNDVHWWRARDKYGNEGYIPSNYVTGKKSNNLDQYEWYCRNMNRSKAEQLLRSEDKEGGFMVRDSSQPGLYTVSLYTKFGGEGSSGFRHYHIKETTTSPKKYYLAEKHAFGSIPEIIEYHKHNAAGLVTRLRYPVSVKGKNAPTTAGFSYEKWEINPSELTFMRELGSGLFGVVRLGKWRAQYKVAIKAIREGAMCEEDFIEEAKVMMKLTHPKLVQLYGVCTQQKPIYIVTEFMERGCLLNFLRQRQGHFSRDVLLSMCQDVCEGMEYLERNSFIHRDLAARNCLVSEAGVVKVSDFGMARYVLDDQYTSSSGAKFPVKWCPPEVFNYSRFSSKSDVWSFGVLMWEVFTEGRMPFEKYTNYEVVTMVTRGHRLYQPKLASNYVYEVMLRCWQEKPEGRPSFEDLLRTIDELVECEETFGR

[15] = biological target: Insulin receptor (Homo sapiens) (UniProt P06213)
[16] = biological target: Maternal embryonic leucine zipper kinase (Homo sapiens) (UniProt Q14680)
[17] = biological target: Cyclin-dependent kinase-like 5 (Homo sapiens) (UniProt O76039)
[18] = biological target: Serine/threonine-protein kinase RIO2 (Homo sapiens) (UniProt Q9BVS4)
[19] = biological target: Serine/threonine-protein kinase 38-like (Homo sapiens) (UniProt Q9Y2H1)
[20] = test system: Tyrosine-protein kinase ABL1 (Homo sapiens), P00519 [H396P]
[21] = biological target: Cyclin-dependent kinase 2 homolog (Plasmodium falciparum (isolate 3D7)) (UniProt P61075)
[22] = biological target: Mitogen-activated protein kinase 10 (Homo sapiens) (UniProt P53779)
[23] = Compound concentration 1000.0 nM
[24] = Compound concentration 100.0 nM

Sequence of Mitogen-activated protein kinase 10 (Homo sapiens) (P53779 whole entry): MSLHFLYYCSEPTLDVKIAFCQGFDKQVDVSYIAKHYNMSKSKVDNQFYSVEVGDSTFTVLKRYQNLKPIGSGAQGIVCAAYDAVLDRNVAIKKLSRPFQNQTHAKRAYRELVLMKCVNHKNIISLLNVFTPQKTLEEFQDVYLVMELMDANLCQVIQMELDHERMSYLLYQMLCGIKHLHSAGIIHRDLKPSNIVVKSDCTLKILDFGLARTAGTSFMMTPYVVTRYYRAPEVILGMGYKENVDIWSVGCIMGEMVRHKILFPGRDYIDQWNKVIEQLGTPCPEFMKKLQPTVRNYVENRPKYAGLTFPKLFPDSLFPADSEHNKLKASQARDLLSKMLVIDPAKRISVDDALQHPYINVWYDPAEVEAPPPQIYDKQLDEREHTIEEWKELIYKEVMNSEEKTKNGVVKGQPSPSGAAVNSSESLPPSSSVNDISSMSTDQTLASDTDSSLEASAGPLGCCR
Sequence of Serine/threonine-protein kinase PLK1 (Homo sapiens) (P53350 whole entry): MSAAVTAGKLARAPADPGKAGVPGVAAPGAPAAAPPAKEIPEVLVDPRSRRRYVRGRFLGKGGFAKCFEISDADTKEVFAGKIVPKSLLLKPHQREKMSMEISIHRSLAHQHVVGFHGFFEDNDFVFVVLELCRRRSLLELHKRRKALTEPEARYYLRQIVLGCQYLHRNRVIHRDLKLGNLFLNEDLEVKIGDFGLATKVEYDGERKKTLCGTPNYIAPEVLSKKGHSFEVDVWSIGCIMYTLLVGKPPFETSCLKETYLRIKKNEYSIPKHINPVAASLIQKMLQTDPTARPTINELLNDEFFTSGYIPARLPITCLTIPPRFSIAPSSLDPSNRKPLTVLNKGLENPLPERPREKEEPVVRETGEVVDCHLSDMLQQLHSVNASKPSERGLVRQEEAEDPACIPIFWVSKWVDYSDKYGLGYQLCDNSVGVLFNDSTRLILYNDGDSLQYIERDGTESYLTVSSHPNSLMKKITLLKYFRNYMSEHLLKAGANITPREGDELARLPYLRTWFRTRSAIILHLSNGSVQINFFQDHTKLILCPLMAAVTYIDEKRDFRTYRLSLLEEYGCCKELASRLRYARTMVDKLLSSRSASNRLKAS
Sequence of Proto-oncogene tyrosine-protein kinase receptor Ret (Homo sapiens) (P07949 whole entry): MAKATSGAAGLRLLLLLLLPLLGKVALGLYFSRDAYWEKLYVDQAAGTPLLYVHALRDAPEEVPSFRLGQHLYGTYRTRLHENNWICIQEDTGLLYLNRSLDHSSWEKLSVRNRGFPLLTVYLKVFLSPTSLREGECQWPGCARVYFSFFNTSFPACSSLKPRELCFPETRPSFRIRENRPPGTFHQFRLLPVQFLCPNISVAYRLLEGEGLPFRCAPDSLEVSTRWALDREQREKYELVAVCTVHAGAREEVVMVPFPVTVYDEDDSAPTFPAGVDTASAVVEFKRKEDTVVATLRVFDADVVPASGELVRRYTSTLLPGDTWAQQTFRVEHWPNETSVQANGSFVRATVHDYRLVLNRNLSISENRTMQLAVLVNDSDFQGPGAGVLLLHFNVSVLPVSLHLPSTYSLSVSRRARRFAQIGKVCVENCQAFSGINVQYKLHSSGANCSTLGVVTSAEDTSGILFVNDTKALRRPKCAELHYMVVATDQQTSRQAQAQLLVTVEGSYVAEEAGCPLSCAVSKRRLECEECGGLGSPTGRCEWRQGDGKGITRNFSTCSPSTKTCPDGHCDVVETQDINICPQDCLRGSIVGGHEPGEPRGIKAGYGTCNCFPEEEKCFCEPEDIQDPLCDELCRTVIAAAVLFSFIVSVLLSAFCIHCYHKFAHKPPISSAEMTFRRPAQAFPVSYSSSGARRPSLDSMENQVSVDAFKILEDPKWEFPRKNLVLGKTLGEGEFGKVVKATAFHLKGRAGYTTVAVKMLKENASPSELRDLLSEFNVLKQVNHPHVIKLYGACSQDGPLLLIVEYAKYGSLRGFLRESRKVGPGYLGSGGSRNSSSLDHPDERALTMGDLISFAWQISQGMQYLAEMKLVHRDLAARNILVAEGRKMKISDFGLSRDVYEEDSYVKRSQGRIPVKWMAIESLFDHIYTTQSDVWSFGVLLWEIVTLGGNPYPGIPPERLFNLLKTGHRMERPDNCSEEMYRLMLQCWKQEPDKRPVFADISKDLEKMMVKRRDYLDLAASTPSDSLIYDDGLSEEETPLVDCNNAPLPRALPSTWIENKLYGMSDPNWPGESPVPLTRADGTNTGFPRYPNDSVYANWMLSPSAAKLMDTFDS
Sequence of Serine/threonine-protein kinase RIO2 (Homo sapiens) (Q9BVS4 whole entry, looked up): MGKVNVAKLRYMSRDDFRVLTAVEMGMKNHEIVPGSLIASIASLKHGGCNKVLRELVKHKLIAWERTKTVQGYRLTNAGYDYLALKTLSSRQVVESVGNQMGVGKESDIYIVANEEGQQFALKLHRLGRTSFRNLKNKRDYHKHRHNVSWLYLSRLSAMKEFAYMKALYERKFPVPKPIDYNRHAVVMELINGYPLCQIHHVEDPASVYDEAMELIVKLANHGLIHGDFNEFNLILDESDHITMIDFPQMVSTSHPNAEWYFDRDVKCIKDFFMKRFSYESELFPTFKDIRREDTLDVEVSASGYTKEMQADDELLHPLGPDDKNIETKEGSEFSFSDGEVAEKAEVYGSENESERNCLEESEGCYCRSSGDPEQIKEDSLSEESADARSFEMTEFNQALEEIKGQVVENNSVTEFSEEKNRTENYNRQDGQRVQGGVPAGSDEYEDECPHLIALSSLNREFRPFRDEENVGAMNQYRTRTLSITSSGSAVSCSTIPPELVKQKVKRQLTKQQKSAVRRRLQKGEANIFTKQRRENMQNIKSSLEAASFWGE
Sequence of Cyclin-dependent kinase 2 homolog (Plasmodium falciparum (isolate 3D7)) (P61075 whole entry): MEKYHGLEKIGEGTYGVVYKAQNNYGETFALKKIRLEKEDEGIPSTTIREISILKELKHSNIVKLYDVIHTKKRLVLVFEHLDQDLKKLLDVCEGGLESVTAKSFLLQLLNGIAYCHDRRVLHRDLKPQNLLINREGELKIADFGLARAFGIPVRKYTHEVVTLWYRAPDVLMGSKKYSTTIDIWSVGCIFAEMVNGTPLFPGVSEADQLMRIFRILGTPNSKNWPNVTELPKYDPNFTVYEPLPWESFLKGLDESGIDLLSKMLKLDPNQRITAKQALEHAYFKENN
Sequence of Serine/threonine-protein kinase LATS2 (Homo sapiens) (Q9NRM7 whole entry): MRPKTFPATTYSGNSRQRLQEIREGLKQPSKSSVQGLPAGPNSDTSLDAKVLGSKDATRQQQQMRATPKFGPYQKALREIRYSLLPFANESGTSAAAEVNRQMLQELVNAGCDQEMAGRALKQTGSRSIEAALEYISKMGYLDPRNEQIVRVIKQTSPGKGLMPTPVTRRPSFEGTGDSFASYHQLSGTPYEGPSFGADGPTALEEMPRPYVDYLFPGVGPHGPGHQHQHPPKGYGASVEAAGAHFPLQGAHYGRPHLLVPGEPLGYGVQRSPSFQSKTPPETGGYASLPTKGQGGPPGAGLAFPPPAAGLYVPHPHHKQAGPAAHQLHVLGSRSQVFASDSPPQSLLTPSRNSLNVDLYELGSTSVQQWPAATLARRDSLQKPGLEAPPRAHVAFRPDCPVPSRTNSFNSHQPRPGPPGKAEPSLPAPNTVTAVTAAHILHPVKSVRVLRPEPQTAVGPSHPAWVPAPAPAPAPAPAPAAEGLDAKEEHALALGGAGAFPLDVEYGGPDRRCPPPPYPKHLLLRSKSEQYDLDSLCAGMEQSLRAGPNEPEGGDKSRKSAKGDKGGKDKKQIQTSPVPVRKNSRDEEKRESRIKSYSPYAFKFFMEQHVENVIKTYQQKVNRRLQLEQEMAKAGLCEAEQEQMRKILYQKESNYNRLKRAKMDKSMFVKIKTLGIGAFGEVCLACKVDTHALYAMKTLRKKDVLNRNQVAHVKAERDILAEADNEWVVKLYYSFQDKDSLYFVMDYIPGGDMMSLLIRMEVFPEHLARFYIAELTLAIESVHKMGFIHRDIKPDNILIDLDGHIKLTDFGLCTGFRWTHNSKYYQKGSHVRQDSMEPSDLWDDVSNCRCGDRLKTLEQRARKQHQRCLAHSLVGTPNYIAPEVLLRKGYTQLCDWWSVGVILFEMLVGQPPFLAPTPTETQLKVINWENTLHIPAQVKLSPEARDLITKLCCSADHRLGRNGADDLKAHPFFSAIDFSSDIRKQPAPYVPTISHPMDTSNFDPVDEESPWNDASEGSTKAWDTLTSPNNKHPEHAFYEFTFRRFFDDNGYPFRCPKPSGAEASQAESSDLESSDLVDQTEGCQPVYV
Sequence of 5-hydroxytryptamine receptor 1D (Homo sapiens) (P28221 whole entry): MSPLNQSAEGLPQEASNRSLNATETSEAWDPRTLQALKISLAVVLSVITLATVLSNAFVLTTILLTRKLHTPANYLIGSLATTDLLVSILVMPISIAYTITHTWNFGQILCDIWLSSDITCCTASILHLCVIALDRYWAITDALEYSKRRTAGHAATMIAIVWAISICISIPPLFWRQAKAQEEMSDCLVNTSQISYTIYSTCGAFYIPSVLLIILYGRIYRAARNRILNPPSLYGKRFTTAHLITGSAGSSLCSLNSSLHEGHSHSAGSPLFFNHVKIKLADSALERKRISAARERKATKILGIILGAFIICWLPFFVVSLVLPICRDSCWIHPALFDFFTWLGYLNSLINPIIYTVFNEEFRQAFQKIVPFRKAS
Sequence of Serine/threonine-protein kinase 38-like (Homo sapiens) (Q9Y2H1 2-464 limits assumed): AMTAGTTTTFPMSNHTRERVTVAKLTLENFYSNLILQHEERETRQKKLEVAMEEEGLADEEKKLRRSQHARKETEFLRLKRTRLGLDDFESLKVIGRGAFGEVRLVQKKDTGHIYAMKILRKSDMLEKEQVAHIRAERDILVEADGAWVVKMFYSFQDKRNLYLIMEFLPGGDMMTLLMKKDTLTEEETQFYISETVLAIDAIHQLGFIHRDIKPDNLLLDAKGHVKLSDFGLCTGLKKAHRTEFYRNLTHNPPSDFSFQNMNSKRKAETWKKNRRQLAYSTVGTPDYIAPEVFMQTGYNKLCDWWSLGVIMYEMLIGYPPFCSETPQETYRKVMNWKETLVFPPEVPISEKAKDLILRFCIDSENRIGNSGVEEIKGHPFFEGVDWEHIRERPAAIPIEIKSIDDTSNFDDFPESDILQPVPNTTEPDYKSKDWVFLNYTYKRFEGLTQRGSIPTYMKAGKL

C[C@@H]1CN(c2cc(-c3nn(C)c4ccc(OC5(C)CC5)cc34)ncn2)C[C@H](C)O1 [MLi-2-NC]
inactive: residual activity [1, 23] 67% | inhibition [2] 4.11% | residual activity [3, 23] 99% | residual activity [4, 23] 79% | residual activity [5, 23] 78% | residual activity [6, 23] 96% | residual activity [7, 23] 100% | residual activity [8, 23] 85% | residual activity [9, 23] 100% | residual activity [10, 23] 89% | residual activity [11, 23] 58% | residual activity [12, 23] 74% | residual activity [13, 23] 76% | residual activity [14, 23] 100% | residual activity [15, 23] 100% | residual activity [16, 23] 55% | residual activity [17, 23] 64% | residual activity [18, 23] 100% | residual activity [19, 23] 72% | residual activity [20, 23] 70% | residual activity [21, 23] 94% | residual activity [22, 23] 71%

C[C@@H]1CN(c2cc(-c3n[nH]c4ccc(OC5(C)CC5)cc34)ncn2)C[C@H](C)O1 [MLi-2]
inactive: residual activity [1, 24] 53% | inhibition [2] -7.94% | residual activity [3, 24] 84% | residual activity [4, 24] 82% | residual activity [5, 24] 92% | residual activity [6, 24] 100% | residual activity [7, 24] 91% | residual activity [8, 24] 100% | residual activity [9, 24] 72% | residual activity [10, 24] 90% | residual activity [11, 24] 68% | residual activity [12, 24] 68% | residual activity [13, 24] 92% | residual activity [14, 24] 74% | residual activity [15, 24] 100% | residual activity [16, 24] 88% | residual activity [17, 24] 72% | residual activity [18, 24] 68% | residual activity [19, 24] 85% | residual activity [20, 24] 71% | residual activity [21, 24] 80% | residual activity [22, 24] 77%
